1 compound from patent US8889883B2, “BODIPY structure fluorescence dye for neural stem cell probe” (National University of Singapore, priority 2010, dated 2014) can be followed below.

In this assay the test system is E14.5 fetal mouse brain cells. As to the kind of experiment: Neurosphere assay of FACS-sorted fetal mouse brain cells. Type of assay: cell-based. The following applies: CDr3, SSEA-1, Aldefluor, CD133 sorted cells. Here is the method:
Next, we were interested to test whether CDr3 can be used for the isolation of NSC from the heterogeneous populations of cells. According to the protocol described by Bibel et al.^7, we induced differentiation of E14 to generate FABP7-positive radial glial cells. The embryoid bodies generated from E14 in the absence of leukemia inhibitory factor were treated with retinoic acid for 2 days until dissociation into single cell suspension. The cells were stained with CDr3 and the CDr3bright and CDr3dim cells were collected separately by FACS. Each cell population was stained with FABP7 antibody and analyzed by flow cytometry. […] For the NSC isolation from the brain tissue, we incubated the E14.5 fetal mouse brain primary cells with CDr3, and the CDr3^bright and CDr3^dim cells were collected separately by FACS for gene expression analysis by real time RT-PCR and neurosphere assay. The expression levels of FABP7, Hes1, Musashi, Nestin and Pax6 in CDr3^bright cells were more than 3-fold higher than in CDr3^dim cells, while the differences of Hes5, Sox2 and Bmi1 expression levels were less than 2-fold (FIG. 5). […]
E14.5 fetal mouse brains were trypsinized in 0.25% trypsin with 1 mM EDTA solution (Invitrogen) for 30 mins at 37° C. before neutralization with FBS. […] The number and size of neurospheres generated from each group were measured after 6 days culture. […]

Each structure is given as a SMILES string.

Regarding `Cc1cc(C)n2c1C=C1C=CC(CCC(=O)NCC=O)=[N+]1[B-]2(F)F` [Aldefluor, BODIPY-aminoacetaldehyde], the “sizes of neurospheres from sorted cells” value was “all similar”.
